Assay results from publication PMC4977052, “On the Utility of ToxCast™ and ToxPi as Methods for Identifying New Obesogens” (Environmental Health Perspectives, 2016).
Read-outs that look alike come from different tables or passages of the source.

Assays:
[1] = tested on: PPARγ; settings: cited from earlier work
[2] = biological target: T1, GAL4-mPPARγ (Mus musculus, UniProt P37238); assay: GAL4-mPPARγ activation, transient transfection luciferase reporter in COS7 cells; format: cell-based; settings: for Activation COS7 (result in words), ToxPi chemicals: PPARγ or RXRα activation assays (Table 2)
T1 construct: expressed in transfected cells; host or cells: COS7
T1 sequence (P37238 with tags, fused parts or gaps limits assumed): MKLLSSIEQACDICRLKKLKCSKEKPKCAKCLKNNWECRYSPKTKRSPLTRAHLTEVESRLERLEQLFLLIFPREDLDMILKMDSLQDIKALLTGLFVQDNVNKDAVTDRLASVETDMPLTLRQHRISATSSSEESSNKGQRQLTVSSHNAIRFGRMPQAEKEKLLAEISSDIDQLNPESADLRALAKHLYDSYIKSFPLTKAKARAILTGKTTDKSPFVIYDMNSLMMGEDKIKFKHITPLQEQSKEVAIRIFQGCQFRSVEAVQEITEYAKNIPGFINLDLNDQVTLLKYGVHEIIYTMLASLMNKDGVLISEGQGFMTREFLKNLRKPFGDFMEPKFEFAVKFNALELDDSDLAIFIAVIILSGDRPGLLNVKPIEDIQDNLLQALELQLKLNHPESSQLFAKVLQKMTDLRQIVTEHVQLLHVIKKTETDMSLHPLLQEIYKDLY
Description: pCMX-Gal4, pCMX-Gal4-mPPARγ, and pCMX-Gal4-hRXRα were previously described ([Grün et al. 2006]). Transient transfections were performed in COS7 cells as described ([Chamorro-García et al. 2012]). Briefly, COS7 cells were seeded at 15,000 cells per well in 96-well tissue culture plates in 10% calf bovine serum. The following day, cells were transfected in Opti-MEM at ~ 90% confluency. One microgram of CMX-GAL4 effector plasmid was co-transfected with 5 μg tk-(MH100)4-luciferase reporter and 5 μg of CMX-β-galactosidase transfection control plasmids in Opti-MEM® using Lipofectamine® 2000 reagent (Invitrogen™ Life Technologies, Carlsbad, CA, USA), following the manufacturer’s recommended protocol. All chemicals were solvated in dimethyl sulfoxide (DMSO). After overnight incubation, the medium was replaced with Dulbecco’s Modified Eagle Medium (DMEM; HyClone, Logan, UT, USA), 10% resin charcoal stripped fetal bovine serum (FBS) plus ligands at concentrations indicated in the figure legends for an additional 24 hr. DMSO concentration was maintained at 0.05% across all chemical treatments. Cells were lysed and assayed for luciferase and β-galactosidase activity as previously described ([Forman et al. 1995]). All transfections were performed in triplicate and reproduced in multiple experiments. Data are reported as fold induction or reduction over vehicle ([…]) controls ± SEM (standard error of the mean) using standard propagation of error ([Bevington and Robinson 2003]). […] The EC50, EC10, IC50, and IC10 values from NCGC and ToxCast™ are reported from gain AC50 and AC10 values in the ToxCast™ 2014 release ([Filer et al. 2014]).
Figure 1 ToxCast™ Chemical Activity on PPARγ. The ability of a graded dose series of ToxCast™ chemicals to (A) activate or (B) antagonize GAL4-mPPARγ was tested in transiently transfected COS7 cells. (A, B) Data points are averages of triplicate transfections (three biological replicates). […] Data are depicted as (A) fold induction or (B) reduction over vehicle (0.05% DMSO) controls ± SEM. (A) ToxCast™ chemicals were tested in 3-fold serial dilutions from 100 μM through 0.137 μM, with the final data point being 0.05% DMSO. Rosiglitazone serves as a positive control activator. (B) ToxCast™ chemicals were tested in 3-fold serial dilutions from 100 μM, in competition with 50 nM rosiglitazone (Rosi). […] (C) EC50, EC10, IC50, and IC10 values calculated from A and B are reported and compared to commercial assays (see Figure S1). Note: ATG, Attagene GAL-PPARγ activation assay; NCGC, GeneBLAzer® agonist (EC values) or antagonist (IC values) assays. Triphenyltin was previously published ([Kanayama et al. 2005]).
Figure 4 ToxPi Chemical Activity on PPARγ and RXRα. The ability of a graded dose series of ToxPi chemicals to activate (A) GAL4-mPPARγ or (B) GAL4-hRXRα was tested in transiently transfected COS7 cells. (A, B) Data points are averages of triplicate transfections (three biological replicates). […] ToxPi chemicals were tested in 3-fold serial dilutions from 100 μM through 0.137 μM, with the final data point being 0.05% DMSO. Data are depicted as fold induction over vehicle (0.05% DMSO) controls ± SEM. (A) Rosiglitazone serves as a positive control activator for GAL4-mPPARγ. (B) LG100268 (2-[1-(3,5,5,8,8-Pentamethyl-5,6,7,8-tetrahydro-2-naphthyl)cyclopropyl]pyridine-5-carboxylic acid) serves as a positive control activator for GAL4-hRXRα. (C) EC50 and EC10 values calculated from A and B are reported and compared to other assays (see Figure S1). ATG, Attagene GAL-PPARγ or GAL-RXRα activation assay; NCGC, GeneBLAzer® GAL-PPARγ or GAL-RXRα activation assays. Triphenyltin was previously published ([Kanayama et al. 2005]).

[3] = tested on: 3T3-L1 preadipocytes; assay: 3T3-L1 adipogenesis assay (lipid accumulation, adipogenic gene expression); format: cell-based; settings: 0.02-20 μM, 5 days after MDI induction
Description: 3T3-L1 cells (ATCC) were maintained in high-glucose DMEM supplemented with 10% fetal bovine serum, 2 mM L-glutamine, 50 IU/mL penicillin, and 50 μg/mL streptomycin. A total of 2 × 10^4 cells per well were seeded in 12-well plates. After 48 hr, cells were exposed to the adipogenic cocktail MDI (500 μM isobutylmethylxanthine, 0.25 nM dexamethasone and 5 μg/mL insulin), 8 μg/mL biotin and 8 μg/mL pantothenate for 2 days. Induction media was removed and cells were exposed to test chemicals during 5 days, replacing the media every 2 days. Rosiglitazone (ROSI) and tributyltin (TBT) were used as positive controls at 100 nM and 50 nM final concentrations, respectively. All ToxCast™ chemicals were tested at 0.02, 0.2, 2, and 20 μM, and DMSO concentration was maintained at 0.1% across all treatments. If the chemical was toxic at 20 μM, we repeated the experiment at 10 μM.
Cells were either fixed in 3.7% formaldehyde in phosphate-buffered saline (PBS) for 30 min at room temperature (RT) for lipid quantitation, or homogenized in TriPure (Roche, Mannheim, Germany) for gene expression analysis. For lipid quantitation, fixed cells were washed twice with PBS and maintained in PBS overnight at 4°C to release residual phenol red. Background of cells were measured prior to staining. Cells were stained with 1 μg/mL Nile red (CAS No. 7385-67-3) (to detect lipid accumulation) and 1 μg/mL Hoechst 33342 (ThermoFisher Scientific) (to detect nuclei as a surrogate for cell number) in PBS for 15 min in the dark at RT and washed twice with PBS. […] Background values of Hoechst and Nile red were subtracted from the RFUs after staining and the ratio RFUNile Red:RFUHoechst was calculated. Data are represented as mean ± SEM. Total RNA was isolated using TriPure (Roche) as recommended by the manufacturer. Reverse transcription and quantitative real-time RT-PCR (QPCR) were performed using Transcriptor RT and SYBR® Green Master Mix (Roche). cDNA was quantitated in a LightCycler® 480 System (Roche Diagnostics, Basel, Switzerland) using primer sets listed in Table S4. Each primer set amplified a single band as determined by gel electrophoresis and melting curve analysis. QPCR data were analyzed using the 2^ΔΔCt method ([Livak and Schmittgen 2001]) relative to ribosomal protein 36b4, normalizing to 0.1% DMSO vehicle. Error bars represent the SEM from four to six biological replicates calculated using standard propagation of error ([Bevington and Robinson 2003]).

[4] = tested on: Human PPARγ; settings: cited from earlier work
[5] = tested on: PPARγ; settings: ToxCast 2014 release, ref Filer et al. 2014, cited from earlier work
[6] = ToxCast 2014 release, ref Filer et al. 2014, read-out: Attagene AC50 (panel A, w/o Z-Score Correction ranking)
[7] = direct binding, ToxCast 2014 release, ref Filer et al. 2014, read-out: NovaScreen AC50 (panel B)
[8] = ToxCast 2014 release, ref Filer et al. 2014, read-out: Attagene AC50 (panel B, with Z-Score Correction ranking)
[9] = direct binding, ToxCast 2014 release, ref Filer et al. 2014, read-out: NovaScreen AC50 (panel A)
[10] = read-out: Tox21/NCGC AC50 (panel A)
[11] = read-out: Tox21/NCGC AC50 (panel B)

Compound	AC50 [1, 6] [µM]	AC50 [4, 7] [µM]	AC50 [1, 8] [µM]	AC50 [4, 9] [µM]	AC50 [5, 10] [µM]	also measured
N#Cc1nn(-c2c(Cl)cc(C(F)(F)F)cc2Cl)c(N)c1[S+]([O-])C(F)(F)F (stereo not shown) [Fipronil]	39.3	–	–	–	–	–
O=c1ccc(=O)[nH][nH]1 [Maleic hydrazide]	–	–	–	–	–	Activation COS7 (result in words), ToxPi chemicals ([2]; Cos-7 transient transfection): Inactive; Adipogenesis 3T3-L1 (result in words) [3]: Negative
O=C(O)c1cc(Oc2ccc(C(F)(F)F)cc2Cl)ccc1[N+](=O)[O-] [Acifluorfen]	–	13.5	37.1	–	–	–
CC1=NNC(=O)N(/N=C/c2cccnc2)C1 [Pymetrozine]	–	–	–	–	–	Activation COS7 (result in words), ToxPi chemicals ([2]; Cos-7 transient transfection): Inactive; Adipogenesis 3T3-L1 (result in words) [3]: Positive; Adipogenesis 3T3-L1 (result in words) ([3]; listed as pymetrozine): promoted adipogenesis
CCCCOC(=O)c1ccccc1C(=O)O [MBP]	–	0.1	18.2	–	–	–
O=C(O)c1c(Cl)ccc2cc(Cl)cnc12 [Quinclorac]	–	0.0002	0.03	–	–	–
CCNc1nc(Cl)nc(NCC)n1 [Simazine]	–	1.5	116	–	–	–
CCCCC(O)(Cn1cncn1)c1ccc(Cl)cc1Cl (stereo not shown) [Hexaconazole]	1.2	–	–	0.3	0.1	–
CC(C)Oc1cccc(NC(=O)c2ccccc2C(F)(F)F)c1 [Flutolanil]	8.5	–	–	10.3	34.1	–
C=CCC1=C(C)[C@@H](OC(=O)[C@@H]2[C@@H](C=C(C)C)C2(C)C)CC1=O [S-Bioallethrin]	–	–	–	–	–	Activation COS7 (result in words), ToxCast PPARγ list ([2]; Cos-7 transient transfection, PPARγ activation or antagonism assays (Table 1, Table S6)): Inactive; AC50 ([1]; PPARγ, NA = not active, ref Filer et al. 2014, read-out: ATG Agonist AC50, 2014 Release): 9.2 µM; AC50 ([1]; PPARγ, NA = not active, ref Knudsen et al. 2011, read-out: ATG Agonist AC50, 2011 Release): 9.2 µM
CC(C)=CC1C(C(=O)OCN2C(=O)C3=C(CCCC3)C2=O)C1(C)C (stereo not shown) [Tetramethrin]	0.02	–	–	0.3	21.6	–
N#CSCSC#N [Methylene dithiocyanate]	–	–	–	–	–	Activation COS7 (result in words), ToxPi chemicals ([2]; Cos-7 transient transfection): Inactive; Adipogenesis 3T3-L1 (result in words) [3]: Negative
Oc1ccccc1-c1ccccc1 [2-Phenylphenol]	0.1	1.1	0.1	1.1	–	–
CS(=O)(=O)c1cc(C(F)(F)F)ccc1C(=O)c1cnoc1C1CC1 [Isoxaflutole]	–	–	10.4	–	–	AC50 [5, 11]: 26.4 µM
COC(=O)NS(=O)(=O)c1ccc(N)cc1 [Asulam]	–	–	–	–	–	Activation COS7 (result in words), ToxPi chemicals ([2]; Cos-7 transient transfection): Inactive; Adipogenesis 3T3-L1 (result in words) [3]: Negative
CCCSP(=O)(OCC)SCCC [Ethoprop]	–	–	–	–	–	AC50 ([4]; read-out: NovaScreen AC50 (panel B)): 3.9 µM; AC50 ([1]; read-out: Attagene AC50 (panel B, with Z-Score Correction ranking)): 114 µM
O=C(O)CCCOc1ccc(Cl)cc1Cl [2,4-DB]	–	–	33.4	–	–	AC50 [5, 11]: 16.7 µM
CCCCOC(=O)C(C)Oc1ccc(Oc2ccc(C(F)(F)F)cn2)cc1 (stereo not shown) [Fluazifop-butyl]	–	0.7	2.8	–	–	–
O=C(O)COc1nc(Cl)c(Cl)cc1Cl [Triclopyr]	54.7	2.1	54.7	2.1	41.5	AC50 [5, 11]: 41.5 µM
Cc1cc(Cl)ccc1OCC(=O)O [MCPA]	33.8	0.1	33.8	0.1	253	AC50 [5, 11]: 253 µM
CCNc1nc(NC(C)C)nc(SC)n1 [Ametryn]	15.1	–	–	31.8	10.2	–
COP(=O)(OC)C(O)C(Cl)(Cl)Cl (stereo not shown) [Trichlorfon]	58.4	–	–	–	0.05	–
CCOP(=O)(NC(C)C)Oc1ccc(SC)c(C)c1 (stereo not shown) [Fenamiphos]	35.1	21.2	35.1	21.2	14.7	AC50 [5, 11]: 14.7 µM
CC(C)NC(=O)N1CC(=O)N(c2cc(Cl)cc(Cl)c2)C1=O [Iprodione]	20.9	2.4	20.9	2.4	45.5	AC50 [5, 11]: 45.5 µM
COc1nn(CSP(=S)(OC)OC)c(=O)s1 [Methidathion]	30.6	0.1	30.6	0.1	–	–
CCSC(=O)N1CCCCCC1 [Molinate]	–	0.1	41.3	–	–	–
Oc1cc(Cl)ccc1Oc1ccc(Cl)cc1Cl [Triclosan]	8.6	–	–	7.1	25.8	Activation of GAL4-PPARγ (text) ([2]; COS7, 100 μM through 0.137 μM): inactive
CCOP(=S)(OCC)SCCSCC [Disulfoton]	–	1.6	81.8	–	–	–
CCOc1nc(F)cc2nc(S(=O)(=O)Nc3c(Cl)cccc3Cl)nn12 [Diclosulam]	–	–	26.3	–	–	AC50 [5, 11]: 2.9 µM
